This passage reports solubility in hexane and solubility in water results from patent US8381774B2, “Methods for loading a drug eluting medical device” (Medtronic Vascular, Inc., priority 2009, dated 2013).

The series in a line: ability of solvents and dispersion mediums to dissolve the therapeutic substance (sirolimus). In kind it is physicochemical. As to the method:
Solution 524 is a homogeneous mixture in which therapeutic substance 112 dissolves within a solvent or a solvent mixture. In one embodiment, solution 524 includes a high-capacity solvent 528 which is an organic solvent that has a high capacity to dissolve therapeutic substance 112. High capacity as utilized herein is defined as an ability to dissolve therapeutic substance 112 at concentrations greater than 500 mg of substance per milliliter of solvent. Examples of high capacity drug dissolving solvents for sirolimus and similar substances include but are not limited to tetrahydrofuran (THF), di-chloromethane (DCM), chloroform, and di-methyl-sulfoxide (DMSO). In addition to the high-capacity solvent, solution 524 may include an excipient 526 in order to assist in drug elution. In one embodiment, excipient 526 may be a surfactant such as but not limited to sorbitan fatty acid esters such as sorbitan monooleate and sorbitan monolaurate, polysorbates such as polysorbate 20, polysorbate 60, and polysorbate 80, cyclodextrins such as 2-hydroxypropyl-beta-cyclodextrin and 2,6-di-O-methyl-beta-cyclodextrin, sodium dodecyl sulfate, octyl glucoside, and low molecular weight poly(ethylene glycol)s. In another embodiment, excipient 526 may be a hydrophilic agent such as but not limited to salts such as sodium chloride and other materials such as urea, citric acid, and ascorbic acid. […]

Turning to `CO[C@H]1C[C@@H]2CC[C@@H](C)[C@@](O)(O2)C(=O)C(=O)N2CCCC[C@H]2C(=O)O[C@H]([C@H](C)C[C@@H]2CC[C@@H](O)[C@H](OC)C2)CC(=O)[C@H](C)/C=C(\C)[C@@H](O)[C@@H](OC)C(=O)[C@H](C)C[C@H](C)/C=C/C=C/C=C/1C` [sirolimus], for the setting “hexane (precipitator solvent)”, the solubility in hexane result is recorded as “insoluble”. The solubility in water entry (water) is recorded as “insoluble”.
